# From patent US9234004B2, “Antimicrobial peptides” (Agency for Science, Technology and Research, priority 2010, dated 2016)
# Read-outs that look alike come from different tables or passages of the source. Ends that are not written are not given here. Peptide text beside a SMILES is read from it.
# Legend:
# Assay type in all cases: cell-based
# rat red blood cells = test: Hemolytic activity test
# Protocol: Peptides were obtained from GL Biochem (Shanghai, China), and their fidelity was further confirmed via matrix-assisted laser desorption/ionization time-of-flight mass spectroscopy (MALDI-TOF MS, Model Autoflex II, Bruker Daltonics Inc., U.S.A.), using α-cyano-4-hydroxycinnamic acid as matrix. The purity of the peptides was also tested to be more than 95% with analytical reverse phase (RP)-HPLC. α-Cyano-4-hydroxycinnamic acid (HCCA) was purchased from Sigma-Aldrich (Singapore) and used in saturated acetonitrile/water (1:1 volume ratio) after being re-crystallized. Sodium dodecyl sulphate (SDS) micelle solution (10% w/v in DI water) was obtained from 1st Base (Malaysia) and used upon dilution to the desirable concentration range. Tryptic soy broth (TSB) powder and yeast mould broth (YMB) powder were purchased from BD Diagnostics (Singapore) and used to prepare the microbial broths according to the manufacturer's instructions. Phosphate-buffered saline solution at 10× concentration was purchased from 1st Base (Malaysia) and used after dilution to the desired concentration. Ethanol (analytical grade, 99%) and glutaraldehyde (synthetic grade, 50% in H2O) were purchased from Sigma Aldrich (Singapore) and used as received. […] Red blood cells used in the experiments were obtained from rats maintained at the Animal Handling Units of the Biomedical Research Centers (Singapore). Human peripheral blood mononuclear cells (PBMCs) were extracted from healthy blood donors and maintained with RPMI medium supplemented with 10% lowendotoxin fetal bovine serum (FBS) and 1% penicillin-streptomycin. Granulocyte macrophage-colony stimulating factor (GM-CSF) and lipopolysaccharide were purchased from Sigma-Aldrich and used as received.
# Fresh red blood cells were washed with PBS for three times, and were subjected to 25 times dilution with PBS to reach a concentration of approximately 4% (in volume) of the blood cells. The red blood cell suspension (100 μL) was placed into a 96-well cell culture plate and mixed with 100 μL of the antimicrobial peptide solution in PBS at concentrations of 0.98, 1.95, 3.90, 7.81, 15.63, 31.25, 62.5, 125, 250, 500 mg/L. The mixture was then incubated at 37° C. for 1 hour to allow for the hemolysis process to take place. At the end of incubation time, the non-hemolysed red blood cells were separated by centrifugation at 13000 g for 5 minutes. Aliquots (100 μL) of the supernatant were transferred into a new 96-well plate, and the hemoglobin release was measured by checking the UV-absorbance of the samples at 576 nm using a microplate reader (TECAN, Switzerland). Two controls were provided in this assay: an untreated red blood cell suspension in PBS was used as the negative control, and a solution containing red blood cells lysed with 0.1% Triton-X was used as the positive control. Each assay was performed in 6 replicates, and the data were expressed as means and standard deviations of the 6 replicates. Percentage of hemolysis was calculated using the following formula: Hemolysis (%)=[(O.D.576 nm of the treated sample−O.D.576 nm of the negative control)/(O.D.576 nm of positive control−O.D.576 nm of negative control)]×100%. Field Emission-Scanning Electron Microscopy (FE-SEM) Analysis of Bacterial Cells
# P. aeruginosa = system: P. aeruginosa
# Protocol: (§1) Microbial cells were firstly re-constituted from its lyophilized form according to the manufacturer's protocol. Bacterial cells were cultured in tryptic soy broth (TSB) at 37° C., and yeast cells were cultured in yeast mould broth (YMB) at room temperature under constant shaking at 100 rpm. Broth containing an antimicrobial peptide was prepared at various concentrations (0.98, 1.95, 3.90, 7.81, 15.63, 31.25, 62.5, 125, 250, 500 mg/L) and transferred into a 96-well tissue culture plate (100 μL/well). Microorganism was first inoculated overnight to enter its log growth-phase. An equal volume of microorganism solution (100 μL) was added into each well of the 96-well plate containing the antimicrobial peptide. Prior to this mixing, the concentration of microorganism solution was adjusted to give an initial optical density (O.D.) reading of 0.1-0.2 at 600 nm wavelength. The growth of the microorganism was observed upon introducing the antimicrobial peptide by measuring the O.D. readings at 2 hour intervals for up to 8 hours. […] Broth containing microbial cells was used as the negative control, and each test was carried out in 6 replicates. The standard deviations of the 6 readings were reported as the error bars.
# C. albicans = system: C. albicans
# Protocol: as §1
# E. coli = system: E. coli
# Protocol: as §1
# B. subtilis = system: B. subtilis
# Protocol: as §1
# [1] = rat red blood cells, 37° C., 1 hour
# [2] = 8 hours incubation, yeast mould broth, room temperature
# [3] = 8 hours incubation, tryptic soy broth, 37° C.
Compound,HC50 (50% hemolytic concentration) (rat red blood cells; [1]),MIC P. aeruginosa (P. aeruginosa; 8 hours incubation),MIC C. albicans (C. albicans; [2]),MIC E. coli (E. coli; [3]),MIC B. subtilis (B. subtilis; [3]),"HC50 (50% hemolytic concentration) (rat red blood cells; red cells of rat, 1 h)",MIC P. aeruginosa (P. aeruginosa; 8 h),MIC C. albicans (C. albicans; 8 h),MIC E. coli (E. coli; 8 h),MIC B. subtilis (B. subtilis; 8 h),hemolysis at the MIC against B. subtilis (rat red blood cells),hemolysis at the MIC level for C. albicans (rat red blood cells)
CC(C)C[C@H](NC(=O)[C@H](CC(C)C)NC(=O)[C@H](CCCCN)NC(=O)[C@H](CCCCN)NC(=O)[C@H](CC(C)C)NC(=O)[C@H](CC(C)C)NC(=O)[C@H](CCCCN)NC(=O)[C@H](CCCCN)NC(=O)[C@H](CC(C)C)NC(=O)[C@H](CC(C)C)NC(=O)[C@@H](N)CS)C(=O)N[C@@H](CCCCN)C(=O)N[C@@H](CCCCN)C(=O)N[C@@H](CS)C(N)=O [CLLKKLLKKLLKKC-NH2] (H-CLLKKLLKKLLKKC-NH2),~82 mg/L,125 µg/mL,125 µg/mL,125 µg/mL,31 µg/mL,–,–,–,–,–,–,–
LLKKLLKKC-NH2 [LLKKLLKKC-NH2],–,–,–,–,–,>2500 mg/L,63 µg/mL,250 µg/mL,>500 µg/mL,125 µg/mL,–,–
CC(C)C[C@H](NC(=O)[C@H](CC(C)C)NC(=O)[C@H](CCCCN)NC(=O)[C@H](CCCCN)NC(=O)[C@H](CC(C)C)NC(=O)[C@H](CC(C)C)NC(=O)[C@@H](N)CS)C(=O)N[C@@H](CCCCN)C(=O)N[C@@H](CCCCN)C(=O)N[C@@H](CS)C(N)=O [CLLKKLLKKC-NH2] (H-CLLKKLLKKC-NH2),–,–,–,–,–,>2500 mg/L,125 µg/mL,250 µg/mL,225 µg/mL,125 µg/mL,–,–
"FFRRFFRR-NH2 [(FFRR)2, FFRRFFRR-NH2]",–,–,–,–,–,>500 mg/L,–,>500 µg/mL,>500 µg/mL,125 µg/mL,–,–
"AARRAARRAARR-NH2 [(AARR)3, AARRAARRAARR-NH2]",–,–,–,–,–,>500 mg/L,–,>500 µg/mL,>500 µg/mL,>500 µg/mL,–,–
"LLKKLLKKLLKK-NH2 [(LLKK)3, LLKKLLKKLLKK-NH2]",–,–,–,–,–,>500 mg/L,–,125 µg/mL,>500 µg/mL,31.3 µg/mL,less than 5%,–
"LLRRLLRRLLRRLLRR-NH2 [(LLRR)4, LLRRLLRRLLRRLLRR-NH2]",–,–,–,–,–,~12 mg/L,–,>50 µg/mL,>50 µg/mL,10 µg/mL,around 50%,–
MLLKKLLKKLLKKM-NH2 [MLLKKLLKKLLKKM-NH2],~158 mg/L,31 µg/mL,125 µg/mL,250 µg/mL,31 µg/mL,–,–,–,–,–,–,–
LLKKLLKKLLKKC-NH2 [LLKKLLKKLLKKC-NH2],~402 mg/L,16 µg/mL,63 µg/mL,150 µg/mL,16 µg/mL,–,–,–,–,–,–,–
"FFRRFFRRFFRRFFRR-NH2 [(FFRR)4, FFRRFFRRFFRRFFRR-NH2]",–,–,–,–,–,~26 mg/L,–,>50 µg/mL,>50 µg/mL,20 µg/mL,around 50%,–
"FFRRFFRRFFRR-NH2 [(FFRR)3, FFRRFFRRFFRR-NH2]",–,–,–,–,–,>500 mg/L,–,125 µg/mL,>500 µg/mL,31.3 µg/mL,less than 5%,12-24%
MLLKKLLKKM-NH2 [MLLKKLLKKM-NH2],–,–,–,–,–,>2500 mg/L,500 µg/mL,500 µg/mL,>500 µg/mL,125 µg/mL,–,–
"LLRRLLRRLLRR-NH2 [(LLRR)3, LLRRLLRRLLRR-NH2]",–,–,–,–,–,>500 mg/L,–,500 µg/mL,>500 µg/mL,15.6 µg/mL,less than 5%,12-24%
